Laboratory results reported in US20260315464A1, “COMPOSITIONS, METHODS, AND SYSTEMS FOR MODULATING SPLICING OF MSH3” (REVIR THERAPEUTICS, INC., priority 2023, published 2026).

System: MSH3
Assay: QPCR assay for levels of MSH3 upon compound treatment in HEK293T or AD293 cells (fold-change of MSH3 transcript, EC50 of MSH3 downregulation; total MSH3 exons 13/14, exons 20/21; Table 8)
Type: cell-based
Details: for mrna remaining at 1 µM / mrna remaining at 10 µM: Homo sapiens, fold-change of the MSH3 transcript, normalized to GAPDH; for mrna remaining at 1 µM: 1 μM compound; for mrna remaining at 10 µM: 10 μM compound; for EC50: EC50 of MSH3 downregulation, XtalPi
Protocol: HEK293T or AD293 cells were treated with Compound 274 at 1 μM and […]. RNA, cDNA and qPCR was prepared using TaqMan Cells-to-CT Express kit (ThermoFisher Scientific). Taqman assays (ThermoFisher Scientific) were used for quantification of total MSH3 exons 13/14 (cat #4351372, ID #: Hs00988993_ml), total MSH3 exons 20/21 (cat #4351372, ID #: Hs00989000_ml), exon 13/PE14A (Fwd: 5′-[…]; Rev: 5′-[…]; Probe: 5′-[…]) and exon 20/PE21A (Fwd: 5′-[…]; Rev: 5′-[…]; Probe: 5′-[…]) mRNA expression. Taqman GAPDH (cat #4448489, ID #: Hs02758991_g1) was used as a reference for data normalization.

Row | Structure (SMILES) | mrna remaining at 1 µM | mrna remaining at 10 µM | EC50
1 | Cn1ncc(-c2ccc3c(c2)C(=O)N(c2ccc(O[C@H]4C[C@]5(C)CC[C@](C)(C4)N5)nn2)C3)n1 [Compound 425, 2-(6-(((1R,3s,5S)-1,5-dimethyl-8-azabicyclo[3.2.1]octan-3-yl)oxy)pyridazin-3-yl)-6-(2-methyl-2H-1,2,3-triazol-4-yl)isoindolin-1-one] | 82% | 70% | 
2 | CN(c1ccc(N2Cc3ncc(-c4nnn(C)n4)cc3C2=O)nn1)[C@H]1C[C@]2(C)CC[C@](C)(C1)N2 [Compound 612, 6-(6-(((1R,3s,5S)-1,5-dimethyl-8-azabicyclo[3.2.1]octan-3-yl)(methyl)amino)pyridazin-3-yl)-3-(2-methyl-2H-tetrazol-5-yl)-6,7-dihydro-5H-pyrrolo[3,4-b]pyridin-5-one] | 109% | 15% | 
3 | Cc1nn(C)nc1-c1cc(F)c2c(c1)C(=O)N(c1ccc(N3C[C@@H](C)N[C@@H](C)C3)nn1)C2 [Compound 641, 6-(2,5-dimethyl-2H-1,2,3-triazol-4-yl)-2-(6-((3S,5R)-3,5-dimethylpiperazin-1-yl)pyridazin-3-yl)-4-fluoroisoindolin-1-one] | 96% | 34% | 
4 | CN(c1ccc(N2Cc3ncc(-c4cnn(C)c4)cc3C2=O)nn1)C1CC(C)(C)NC(C)(C)C1 [Compound 148, 6-(6-(methyl(2,2,6,6-tetramethylpiperidin-4-yl)amino)pyridazin-3-yl)-3-(1-methyl-1H-pyrazol-4-yl)-6,7-dihydro-5H-pyrrolo[3,4-b]pyridin-5-one] | 103% | 40% | 
5 | Cc1nn(C)nc1-c1cnc2c(c1)C(=O)N(c1ccc(N(C)C3CC(C)(C)NC(C)(C)C3)nn1)C2 [Compound 180, 3-(2,5-dimethyl-2H-1,2,3-triazol-4-yl)-6-(6-(methyl(2,2,6,6-tetramethylpiperidin-4-yl)amino)pyridazin-3-yl)-6,7-dihydro-5H-pyrrolo[3,4-b]pyridin-5-one] | 50% | 8% | 1120 nM
6 | Cn1cc(-c2cnc3c(c2)C(=O)N(c2ccc(OC4CC(C)(C)NC(C)(C)C4)nn2)C3)c(C(F)(F)F)n1 [Compound 176, 3-(1-methyl-3-(trifluoromethyl)-1H-pyrazol-4-yl)-6-(6-((2,2,6,6-tetramethylpiperidin-4-yl)oxy)pyridazin-3-yl)-6,7-dihydro-5H-pyrrolo[3,4-b]pyridin-5-one] | 94% | 110% | 
7 | Cc1nn(C)cc1-c1ccc2c(c1)C(=O)N(c1ccc(N(C)[C@H]3C[C@]4(C)CC[C@](C)(C3)N4)nn1)C2 [Compound 423, 6-(1,3-dimethyl-1H-pyrazol-4-yl)-2-(6-(((1R,3s,5S)-1,5-dimethyl-8-azabicyclo[3.2.1]octan-3-yl)(methyl)amino)pyridazin-3-yl)isoindolin-1-one] | 37% | 10% | 
8 | CC(C)(O)Cn1cc(-c2cc(F)c3c(c2)C(=O)N(c2ccc(OC4CC(C)(C)NC(C)(C)C4)nn2)C3)c(Cl)n1 [Compound 649, 6-(3-chloro-1-(2-hydroxy-2-methylpropyl)-1H-pyrazol-4-yl)-4-fluoro-2-(6-((2,2,6,6-tetramethylpiperidin-4-yl)oxy)pyridazin-3-yl)isoindolin-1-one] | 106% | 63% | 
9 | Cn1ncc(-c2cnc3c(c2)C(=O)N(c2ccc(OC4CC(C)(C)NC5(CCC5)C4)nn2)C3)n1 (stereo not drawn) [Compound 601, 6-(6-((6,6-dimethyl-5-azaspiro[3.5]nonan-8-yl)oxy)pyridazin-3-yl)-3-(2-methyl-2H-1,2,3-triazol-4-yl)-6,7-dihydro-5H-pyrrolo[3,4-b]pyridin-5-one] | 117% | 82% | 
10 | Cn1ncc(-c2cnc3c(n2)C(=O)N(c2ccc(O[C@H]4C[C@]5(C)CC[C@](C)(C4)N5)nn2)C3)n1 [Compound 498, 6-(6-(((1R,3s,5S)-1,5-dimethyl-8-azabicyclo[3.2.1]octan-3-yl)oxy)pyridazin-3-yl)-3-(2-methyl-2H-1,2,3-triazol-4-yl)-6,7-dihydro-5H-pyrrolo[3,4-b]pyrazin-5-one] | 67% | 52% | 
11 | Cc1nn(C)nc1-c1cc2c(nn1)CN(c1ccc(O[C@H]3C[C@]4(C)CC[C@](C)(C3)N4)nn1)C2=O [Compound 596, 3-(2,5-dimethyl-2H-1,2,3-triazol-4-yl)-6-(6-(((1R,3s,5S)-1,5-dimethyl-8-azabicyclo[3.2.1]octan-3-yl)oxy)pyridazin-3-yl)-6,7-dihydro-5H-pyrrolo[3,4-c]pyridazin-5-one] | 88% | 106% | 
12 | Cc1nn(C)nc1-c1cc(F)c2c(c1)C(=O)N(c1ccc(N3CCC(C)(C)NC(C)(C)C3)nn1)C2 [Compound 657, 6-(2,5-dimethyl-2H-1,2,3-triazol-4-yl)-4-fluoro-2-(6-(3,3,5,5-tetramethyl-1,4-diazepan-1-yl)pyridazin-3-yl)isoindolin-1-one] | 75% | 26% | 
13 | Cc1nn(C)cc1-c1cnc2c(c1)C(=O)N(c1ccc(OC3CC(C)(C)NC4(CC4)C3)nn1)C2 (stereo not drawn) [Compound 205, 3-(1,3-dimethyl-1H-pyrazol-4-yl)-6-(6-((5,5-dimethyl-4-azaspiro[2.5]octan-7-yl)oxy)pyridazin-3-yl)-6,7-dihydro-5H-pyrrolo[3,4-b]pyridin-5-one] | 90% | 14% | 1420 nM
14 | Cc1nn(C)cc1-c1cnc2c(c1)C(=O)N(c1ccc(N(C3CC3)C3CC(C)(C)NC(C)(C)C3)nn1)C2 [Compound 487, 6-(6-(cyclopropyl(2,2,6,6-tetramethylpiperidin-4-yl)amino)pyridazin-3-yl)-3-(1,3-dimethyl-1H-pyrazol-4-yl)-6,7-dihydro-5H-pyrrolo[3,4-b]pyridin-5-one] | 133% | 31% | 
15 | Cn1nc(Cl)c(-c2cnc3c(c2)C(=O)N(c2ccc(OC4CC(C)(C)NC5(CCC5)C4)nn2)C3)n1 (stereo not drawn) [Compound 619, 3-(5-chloro-2-methyl-2H-1,2,3-triazol-4-yl)-6-(6-((6,6-dimethyl-5-azaspiro[3.5]nonan-8-yl)oxy)pyridazin-3-yl)-6,7-dihydro-5H-pyrrolo[3,4-b]pyridin-5-one] | 80% | 10% | 
16 | Cc1nn(C)cc1-c1cnc2c(c1)C(=O)N(c1ccc(S[C@H]3C[C@]4(C)CC[C@](C)(C3)N4)nn1)C2 [Compound 490, 3-(1,3-dimethyl-1H-pyrazol-4-yl)-6-(6-(((1R,3s,5S)-1,5-dimethyl-8-azabicyclo[3.2.1]octan-3-yl)thio)pyridazin-3-yl)-6,7-dihydro-5H-pyrrolo[3,4-b]pyridin-5-one] | 90% | 25% | 
17 | Cn1nc(Cl)c(-c2cnc3c(c2)C(=O)N(c2ccc(OC4CCC(C)(C)NC(C)(C)C4)nn2)C3)n1 (stereo not drawn) [Compound 488, 3-(5-chloro-2-methyl-2H-1,2,3-triazol-4-yl)-6-(6-((2,2,7,7-tetramethylazepan-4-yl)oxy)pyridazin-3-yl)-6,7-dihydro-5H-pyrrolo[3,4-b]pyridin-5-one] | 69% | 19% | 
18 | Cn1nc(Cl)c(-c2cnc3c(n2)C(=O)N(c2ccc(OC4CCC(C)(C)NC(C)(C)C4)nn2)C3)n1 (stereo not drawn) [Compound 509, 3-(5-chloro-2-methyl-2H-1,2,3-triazol-4-yl)-6-(6-((2,2,7,7-tetramethylazepan-4-yl)oxy)pyridazin-3-yl)-6,7-dihydro-5H-pyrrolo[3,4-b]pyrazin-5-one] | 117% | 62% | 
19 | Cn1nc(Cl)c(-c2cc(F)c3c(c2)C(=O)N(c2ccc(N4CC5(CNC5)C4)nn2)C3)n1 [Compound 670, 2-(6-(2,6-diazaspiro[3.3]heptan-2-yl)pyridazin-3-yl)-6-(5-chloro-2-methyl-2H-1,2,3-triazol-4-yl)-4-fluoroisoindolin-1-one] | 92% | 44% | 
20 | Cc1nn(C)nc1-c1cc(F)c2c(c1)C(=O)N(c1ccc(N3CCC4(CCNC4)C3)nn1)C2 (stereo not drawn) [Compound 646, 2-(6-(2,7-diazaspiro[4.4]nonan-2-yl)pyridazin-3-yl)-6-(2,5-dimethyl-2H-1,2,3-triazol-4-yl)-4-fluoroisoindolin-1-one] | 115% | 76% | 
21 | Cn1nc(Cl)c(-c2cc(F)c3c(c2)C(=O)N(c2ccc(N4CC5(CCNC5)C4)nn2)C3)n1 [Compound 644, 2-(6-(2,6-diazaspiro[3.4]octan-2-yl)pyridazin-3-yl)-6-(5-chloro-2-methyl-2H-1,2,3-triazol-4-yl)-4-fluoroisoindolin-1-one] | 87% | 97% | 
22 | Cc1nn(C)nc1-c1cc(F)c2c(c1)C(=O)N(c1ccc(N3CCNC(C)CC3)nn1)C2 (stereo not drawn) [Compound 639, 6-(2,5-dimethyl-2H-1,2,3-triazol-4-yl)-4-fluoro-2-(6-(5-methyl-1,4-diazepan-1-yl)pyridazin-3-yl)isoindolin-1-one] | 118% | 55% | 
23 | Cn1nc(Cl)c(-c2cc(F)c3c(c2)C(=O)N(c2ccc(N4CCC5CCC(C4)N5)nn2)C3)n1 (stereo not drawn) [Compound 659, 2-(6-(3,9-diazabicyclo[4.2.1]nonan-3-yl)pyridazin-3-yl)-6-(5-chloro-2-methyl-2H-1,2,3-triazol-4-yl)-4-fluoroisoindolin-1-one] | 142% | 57% | 
